Laboratory results reported in ChEMBL document CHEMBL1275357, “Inhibition of Helicobacter pylori aminoacyl-tRNA amidotransferase by chloramphenicol analogs” (Bioorg Med Chem, 2010).

Assay: Competitive inhibition of Helicobacter pylori aminoacyl-tRNA […] GatCAB

Ki | SMILES
400 µM | CS(=O)(=O)CC[C@H](N)C(=O)N[C@H](CO)[C@H](O)c1ccccc1
370 µM | CS(=O)(=O)CC[C@H](N)C(=O)N[C@@H](CO)[C@H](O)c1ccc([N+](=O)[O-])cc1
4 µM | CN(C)c1ncnc2c1ncn2[C@@H]1O[C@H](CO)[C@@H](NC(=O)[C@@H](N)CCS(C)(=O)=O)[C@H]1O
1850 µM | O=C(N[C@H](CO)[C@H](O)c1ccc([N+](=O)[O-])cc1)C(Cl)Cl [CHLORAMPHENICOL]
120 µM | CS(=O)(=O)CC[C@H](N)C(=O)N[C@H](CO)[C@H](O)c1ccc(S(C)(=O)=O)cc1
2800 µM | CS(=O)(=O)CC[C@H](N)C(=O)N[C@H](CO)[C@@H](O)c1ccc([N+](=O)[O-])cc1
160 µM | CS(=O)(=O)CC[C@H](N)C(=O)N[C@@H](CO)[C@@H](O)c1ccc([N+](=O)[O-])cc1
27 µM | CS(=O)(=O)CC[C@H](N)C(=O)N[C@H](CO)[C@H](O)c1ccc([N+](=O)[O-])cc1
